Experimental data from PubChem BioAssay (NCI).
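In this assay, cells in 96-well plates receive the compound at five concentrations for 48 hours. Endpoints are linearly interpolated between the surrounding concentrations. Here, GI50 denotes the concentration required for 50% inhibition of growth. TGI: concentration producing complete growth inhibition.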

Columns and labels:
Test in all cases: growth of human tumour cells (NCI), 48 h
[1] = tested on: BT-549 breast
[2] = tested on: HCT-15 colon
[3] = tested on: TK-10 renal
[4] = tested on: M14 melanoma
[5] = tested on: UACC-62 melanoma
[6] = tested on: HCC-2998 colon
[7] = tested on: SW-620 colon
[8] = tested on: U251 CNS
[9] = tested on: NCI-H23 lung
[10] = tested on: MALME-3M melanoma
[11] = tested on: OVCAR-5 ovarian
[12] = tested on: ACHN renal
[13] = tested on: COLO 205 colon
[14] = tested on: A549 NSCLC
[15] = tested on: MDA-MB-435
[16] = tested on: SNB-75 CNS
[17] = tested on: CAKI-1 renal
[18] = tested on: NCI/ADR-RES ovarian
[19] = tested on: MCF7 breast
[20] = tested on: DU-145 prostate
[21] = tested on: NCI-H460 lung
[22] = tested on: OVCAR-3 ovarian
[23] = tested on: HOP-92 NSCLC
[24] = tested on: RXF 393 renal
[25] = tested on: MDA-MB-231 breast
[26] = tested on: PC-3 prostate
[27] = tested on: OVCAR-8 ovarian
[28] = tested on: KM12 colon
[29] = tested on: RPMI-8226 leukemia
[30] = tested on: MOLT-4 leukemia
[31] = tested on: K-562 leukemia
[32] = tested on: A498 renal
[33] = tested on: HOP-62 NSCLC
[34] = tested on: HS 578T breast
[35] = tested on: SK-MEL-5 melanoma
[36] = tested on: SK-MEL-2 melanoma
[37] = tested on: SK-OV-3 ovarian
[38] = tested on: HT29 colon
[39] = tested on: SR leukemia
[40] = tested on: NCI-H522 lung
[41] = tested on: SF-539 CNS
[42] = tested on: CCRF-CEM leukemia
[43] = tested on: HCT-116 colon
[44] = tested on: T-47D breast
[45] = tested on: 786-0 renal
[46] = tested on: SN12C renal
[47] = tested on: NCI-H226 lung
[48] = tested on: SF-268 CNS
[49] = tested on: IGROV1 ovarian
[50] = tested on: SK-MEL-28 melanoma
[51] = tested on: SNB-19 CNS
[52] = tested on: HL-60(TB) leukemia
[53] = tested on: UACC-257 melanoma
[54] = tested on: SF-295 CNS
[55] = tested on: UO-31 renal
[56] = tested on: EKVX NSCLC
[57] = tested on: OVCAR-4 ovarian
[58] = tested on: LOX IMVI melanoma

CC(C)CCC[C@@H](C)[C@H]1CCC2C3=CCn4c(=O)ccc(=O)n4C3CC[C@@]21C (stereo partly specified)
GI50 [1]: 0.241 µM | TGI [1]: 1.14 µM | GI50 [2]: 0.432 µM | TGI [2]: 2.05 µM | GI50 [3]: 0.421 µM | TGI [3]: 1.43 µM | GI50 [4]: 0.436 µM | TGI [4]: 1.44 µM | GI50 [5]: 0.483 µM | TGI [5]: 1.93 µM | GI50 [6]: 0.708 µM | TGI [6]: 2.03 µM | GI50 [7]: 0.689 µM | TGI [7]: 1.94 µM | GI50 [8]: 0.645 µM | TGI [8]: 1.84 µM | GI50 [9]: 1.63 µM | TGI [9]: 4.18 µM | GI50 [10]: 1.4 µM | TGI [10]: 2.92 µM | GI50 [11]: 1.16 µM | TGI [11]: 2.71 µM | GI50 [12]: 1.16 µM | TGI [12]: 2.45 µM | GI50 [13]: 0.449 µM | TGI [13]: 1.14 µM | GI50 [14]: 0.325 µM | TGI [14]: 1.24 µM | GI50 [15]: 0.599 µM | TGI [15]: 2.03 µM | GI50 [16]: 1.01 µM | TGI [16]: 2.18 µM | GI50 [17]: 0.46 µM | TGI [17]: 1.21 µM | GI50 [18]: 0.602 µM | TGI [18]: 2.35 µM | GI50 [19]: 0.341 µM | TGI [19]: 1.4 µM | GI50 [20]: 1.24 µM | TGI [20]: 2.52 µM | GI50 [21]: 0.886 µM | TGI [21]: 2.35 µM | GI50 [22]: 0.74 µM | TGI [22]: 2 µM | GI50 [23]: 0.24 µM | TGI [23]: 1.39 µM | GI50 [24]: 0.717 µM | TGI [24]: 2.31 µM | GI50 [25]: 1.18 µM | TGI [25]: 2.72 µM | GI50 [26]: 0.367 µM | TGI [26]: 1.59 µM | GI50 [27]: 0.485 µM | TGI [27]: 7.55 µM | GI50 [28]: 0.639 µM | TGI [28]: 1.8 µM | GI50 [29]: 0.243 µM | TGI [29]: 1.01 µM | GI50 [30]: 0.545 µM | TGI [30]: 4.13 µM | GI50 [31]: 0.309 µM | TGI [31]: 2.02 µM | GI50 [32]: 1.26 µM | TGI [32]: 2.54 µM | GI50 [33]: 1.34 µM | TGI [33]: 2.76 µM | GI50 [34]: 1.84 µM | TGI [34]: 5.03 µM | GI50 [35]: 0.844 µM | TGI [35]: 2.15 µM | GI50 [36]: 0.557 µM | TGI [36]: 1.46 µM | GI50 [37]: 1.78 µM | TGI [37]: 3.17 µM | GI50 [38]: 0.575 µM | TGI [38]: 2.06 µM | GI50 [39]: 0.137 µM | TGI [39]: 0.758 µM | GI50 [40]: 0.451 µM | TGI [40]: 1.17 µM | GI50 [41]: 1.43 µM | TGI [41]: 2.79 µM | GI50 [42]: 0.453 µM | TGI [42]: > 100 µM | GI50 [43]: 0.22 µM | TGI [43]: 0.645 µM | GI50 [44]: 0.266 µM | TGI [44]: 1.6 µM | GI50 [45]: 0.921 µM | TGI [45]: 2.18 µM | GI50 [46]: 0.624 µM | TGI [46]: 2.03 µM | GI50 [47]: 1.43 µM | TGI [47]: 3.32 µM | GI50 [48]: 1.46 µM | TGI [48]: 2.87 µM | GI50 [49]: 0.698 µM | TGI [49]: 2.5 µM | GI50 [50]: 0.837 µM | TGI [50]: 2.1 µM | GI50 [51]: 1.59 µM | TGI [51]: 3.02 µM | GI50 [52]: 0.113 µM | TGI [52]: 0.49 µM | GI50 [53]: 0.433 µM | TGI [53]: 1.55 µM | GI50 [54]: 0.352 µM | TGI [54]: 1.28 µM | GI50 [55]: 0.354 µM | TGI [55]: 1.48 µM | GI50 [56]: 1.24 µM | TGI [56]: 2.94 µM | GI50 [57]: 0.91 µM | TGI [57]: 2.3 µM | GI50 [58]: 0.482 µM | TGI [58]: 1.49 µM
